Reference: PMC7138139 (Molecular and cellular neurosciences, 2020)

How the values were obtained:
[1] = molecular target: T1, Olfr937 (Mus musculus, UniProt Q9EQB4); experiment: Glosensor cAMP luminescence dose-response, Hana3A cells; type: cell-based; conditions: antagonist of whiskey lactone response; 316 uM
T1 sequence (Q9EQB4 1-311): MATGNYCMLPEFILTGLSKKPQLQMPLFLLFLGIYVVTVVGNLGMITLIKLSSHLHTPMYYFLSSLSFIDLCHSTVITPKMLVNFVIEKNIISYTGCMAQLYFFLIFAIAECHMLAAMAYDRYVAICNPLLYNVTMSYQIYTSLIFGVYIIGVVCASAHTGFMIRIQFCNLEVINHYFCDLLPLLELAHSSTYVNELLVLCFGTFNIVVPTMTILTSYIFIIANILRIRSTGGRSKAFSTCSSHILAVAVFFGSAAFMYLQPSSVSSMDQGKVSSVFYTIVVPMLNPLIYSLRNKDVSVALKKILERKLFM

[2] = molecular target: T2, Olfr774 (Mus musculus, UniProt Q7TRI5); experiment: as above; type: cell-based; conditions: agonist
T2 sequence (Q7TRI5 1-312): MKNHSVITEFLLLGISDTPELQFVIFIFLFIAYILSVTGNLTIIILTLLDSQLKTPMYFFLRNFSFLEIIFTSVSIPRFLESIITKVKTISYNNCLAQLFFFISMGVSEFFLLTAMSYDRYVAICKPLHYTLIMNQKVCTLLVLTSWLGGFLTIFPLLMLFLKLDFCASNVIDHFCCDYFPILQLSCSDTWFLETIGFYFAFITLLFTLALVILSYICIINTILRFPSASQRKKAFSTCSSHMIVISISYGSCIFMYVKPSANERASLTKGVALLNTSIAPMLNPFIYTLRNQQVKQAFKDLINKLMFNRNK

| SMILES | Glosensor cAMP luminescence dose-response, Hana3A cells [1] | Glosensor cAMP luminescence dose-response, Hana3A cells [2] |
| --- | --- | --- |
| CC(C)(C)c1ccc(CCC=O)cc1 [bourgeonal, 3-(4-tert-butylphenyl)propanal] | bourgeonal and lyral also suppressed Olfr937 responses to whiskey lactone, with bourgeonal being more effective |  |
| CCCCCCCCCCC=O [undecanal] |  | In vitro testing confirmed that Olfr774 responded to undecanal but not to bourgeonal |
